Data from patent publication US8309766B2 (Obschestvo S. Organichennoi Otvetstvennostiyu …, priority 2005, dated 2012).

How the values were obtained:
[1] = tested on: carrageenan edema of rat paw; experiment: Carrageenan edema of rat paw; assay type: in vivo, outbreed white rats; settings: rats; 10% ointment; 4 hours post carrageenan
Protocol: The tests were conducted on males of outbreed white rats weighing 250-270 grams. The model of carrageenan edema was used which model is described in Winter et al. In: DeRosa M., Giroud J. P. Willoughby D. A. Studies of the mediators of acute inflammatory response induced in rats in different sites by carrageenan and turpentine.//J. Pharmacol. 1971. V. 104. P. 15-29.
0.1 ml 1% carrageenan solution (SERVA) was subplantarly injected into a right paw of rats. The animals were placed into individual chambers. […] Paw volume was measured using a pletismometer (Ugo Besile) at 4 hours post carrageenan administration. Therapeutic effect of the ointment was assessed by the inhibition degree of inflammatory reaction as compared to an intact left paw of the given animal and to a paw reaction of a control (untreated) group of rats. Inhibition of inflammatory reaction expressed in percent was calculated according to the formula: […]

[2] = tested on: gastric mucosa of rats; experiment: Ulcerogenic effect on gastric mucosa; assay type: in vivo, outbreed rats; settings: 30 mg/kg once intragastrally, at 24 hours, M ± m
Protocol: The tests were carried out on females of outbreed rats weighing 300-320 grams. The compounds tested were administered once intragastrally at a dose 30 mg/kg to rats deprived of feed for 24 hours prior to the test. Animals in the control group were administered distilled water in the same volume. At 24 hours the animals were sacrificed and stomachs were extracted. An empty stomach was filled with 2% formalin solution and it was placed into a beaker with formalin. 30 minutes later, the stomach was opened along the great curvature, expanded on a slide, fixed and washed with distilled water. Using the magnifying glass MBS-9 (8-fold magnification) length and width of gastric mucosa defects was measured and area in mm^2 was calculated (1 division of the magnifying glass ruler=0.1 mm). Ulcerogenic effect of a substance was assessed by ulcerous lesion area of gastric mucosa according to the technique presented in Rukovodstvo po experimental'nomu (doklinicheskomu) izucheniju novykh pharmacologicheskikh veshchestv (the Guide on Experimental (pre-clinical) Study of Novel Pharmacological Substances)./Moscow. “Remedium” publishers. 2000, 398 pages.

[3] = tested on: HL-60 cells; settings: Chen et al., Chinese Pharmaceutical Journal 2001; cited from earlier work

Compound	Edema inhibition (%) [1] [%]	Paw volume gain (%) [1] [%]	Area of ulcerous lesion [2] [mm^2]	cellular differentiation [3]
COc1ccc2c(c1)c(CC(=O)O)c(C)n2C(=O)c1ccc(Cl)cc1 [Indomethacin, reference compound]	50.0	45.0	7.3 ± 1.75	–
O=C(Cc1ccccc1)N[C@@H](Cc1ccccc1)C(=O)O [XIX, phenylacetylphenylalanine]	–	–	–	inductor of cellular differentiation
